Key:
Assay in all cases: Screen Quest Fluo-8 No Wash Calcium Assay (Bz-ATP evoked Ca2+ influx, FLIPR)
Assay type in all cases: cell-based
[1] = target: T1, P2X7 receptor (Homo sapiens, UniProt Q99572); design: hP2X7 (IC50; nM); other: hP2X7; HEK-293 cells stably transfected with P2X7 receptor, Bz-ATP at EC80, Fluo-8 NW; potency; conditions: hP2X7; HEK-293 cells stably transfected with P2X7 receptor, Bz-ATP at EC80, Fluo-8 NW; potency ranges A-D
T1 sequence (Q99572 1-595): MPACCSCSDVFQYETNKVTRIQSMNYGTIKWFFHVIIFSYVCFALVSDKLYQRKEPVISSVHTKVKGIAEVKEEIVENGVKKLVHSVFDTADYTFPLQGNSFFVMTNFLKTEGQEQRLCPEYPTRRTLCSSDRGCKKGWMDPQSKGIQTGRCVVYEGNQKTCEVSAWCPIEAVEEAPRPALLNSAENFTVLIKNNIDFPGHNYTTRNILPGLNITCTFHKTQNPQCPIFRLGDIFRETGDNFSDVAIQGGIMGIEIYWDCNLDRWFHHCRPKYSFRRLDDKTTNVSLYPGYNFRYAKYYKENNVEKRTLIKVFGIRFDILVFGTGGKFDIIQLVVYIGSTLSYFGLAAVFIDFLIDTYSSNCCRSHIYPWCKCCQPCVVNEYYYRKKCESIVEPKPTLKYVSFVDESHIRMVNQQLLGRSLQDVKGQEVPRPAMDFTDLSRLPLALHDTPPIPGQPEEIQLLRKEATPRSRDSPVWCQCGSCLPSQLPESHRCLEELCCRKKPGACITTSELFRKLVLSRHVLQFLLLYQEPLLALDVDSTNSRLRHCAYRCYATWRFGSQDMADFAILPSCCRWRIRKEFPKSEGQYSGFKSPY
Method in brief: (§1)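 Compounds were added to Fluo-8-loaded P2X7-transfected HEK-293 cells 5 min before an EC80 Bz-ATP challenge, and Ca2+ influx was then recorded for 3 min. Buffer held 0.3 mM Ca2+ and no Mg2+. Inhibition was normalised to A438079, giving IC50 values.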

[2] = target: T2, P2X7 receptor (Rattus norvegicus, UniProt Q64663); conditions: rP2X7; HEK-293 cells stably transfected with P2X7 receptor, Bz-ATP at EC80, Fluo-8 NW; potency ranges A-D
T2 construct: rP2X7 (IC50; nM); other: rP2X7; HEK-293 cells stably transfected with P2X7 receptor, Bz-ATP at EC80, Fluo-8 NW; potency
T2 sequence (Q64663 1-595): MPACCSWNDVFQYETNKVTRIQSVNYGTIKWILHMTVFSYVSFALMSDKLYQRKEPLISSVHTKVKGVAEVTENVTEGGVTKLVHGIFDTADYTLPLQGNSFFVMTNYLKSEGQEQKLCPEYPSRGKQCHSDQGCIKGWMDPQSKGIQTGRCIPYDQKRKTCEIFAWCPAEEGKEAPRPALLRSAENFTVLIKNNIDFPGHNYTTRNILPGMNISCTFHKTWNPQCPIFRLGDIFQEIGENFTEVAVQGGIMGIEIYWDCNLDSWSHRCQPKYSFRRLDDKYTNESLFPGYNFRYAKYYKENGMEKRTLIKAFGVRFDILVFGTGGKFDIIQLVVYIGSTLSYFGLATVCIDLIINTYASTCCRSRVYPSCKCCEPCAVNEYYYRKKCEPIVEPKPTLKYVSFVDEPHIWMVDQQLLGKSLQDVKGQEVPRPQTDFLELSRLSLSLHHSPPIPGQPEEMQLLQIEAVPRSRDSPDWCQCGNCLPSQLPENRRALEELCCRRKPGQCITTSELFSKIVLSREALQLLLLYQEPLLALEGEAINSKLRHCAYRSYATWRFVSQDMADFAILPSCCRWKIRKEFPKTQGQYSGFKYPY
Method in brief: as §1

[3] = target: T3, P2X7 receptor (Mus musculus, UniProt Q9Z1M0); conditions: mP2X7; HEK-293 cells stably transfected with P2X7 receptor, Bz-ATP at EC80, Fluo-8 NW; potency ranges A-D
T3 construct: mP2X7 (IC50; nM); other: mP2X7; HEK-293 cells stably transfected with P2X7 receptor, Bz-ATP at EC80, Fluo-8 NW; potency
T3 sequence (Q9Z1M0 1-595): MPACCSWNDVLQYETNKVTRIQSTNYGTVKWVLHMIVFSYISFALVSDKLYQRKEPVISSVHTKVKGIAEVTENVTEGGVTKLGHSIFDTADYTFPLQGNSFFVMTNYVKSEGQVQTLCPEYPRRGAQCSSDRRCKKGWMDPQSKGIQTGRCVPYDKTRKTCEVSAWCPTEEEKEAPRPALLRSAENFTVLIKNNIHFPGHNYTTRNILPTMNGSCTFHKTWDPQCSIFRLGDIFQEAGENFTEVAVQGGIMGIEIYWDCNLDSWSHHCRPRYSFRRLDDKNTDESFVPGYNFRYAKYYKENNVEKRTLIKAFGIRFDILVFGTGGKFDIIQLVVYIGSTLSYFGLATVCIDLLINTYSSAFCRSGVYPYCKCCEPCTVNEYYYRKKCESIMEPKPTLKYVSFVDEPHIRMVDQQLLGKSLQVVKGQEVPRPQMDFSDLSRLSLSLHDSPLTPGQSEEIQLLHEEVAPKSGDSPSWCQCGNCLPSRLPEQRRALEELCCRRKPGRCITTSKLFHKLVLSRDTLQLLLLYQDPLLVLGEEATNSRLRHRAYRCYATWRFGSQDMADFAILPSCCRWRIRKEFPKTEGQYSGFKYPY
Method in brief: as §1

| SMILES | IC50 [1] | IC50 [2] | IC50 [3] |
| --- | --- | --- | --- |
| Cc1noc(Cn2c(CC3CCC(F)(F)CC3)noc2=O)n1 [Example 197, 3-[(4,4-difluorocyclohexyl)methyl]-4-[(3-methyl-1,2,4-oxadiazol-5-yl)methyl]-1,2,4-oxadiazol-5(4H)-one] | > 10000 nM | > 10000 nM | > 10000 nM |
| O=c1onc(CC2CCC(F)(F)CC2)n1Cc1ccno1 [Example 199, 3-[(4,4-difluorocyclohexyl)methyl]-4-[(1,2-oxazol-5-yl)methyl]-1,2,4-oxadiazol-5(4H)-one] | > 10000 nM | 1000 to 10000 nM | 1000 to 10000 nM |
| Cc1ncsc1Cn1c(CC2CCC(F)(F)CC2)noc1=O [Example 200, 3-[(4,4-difluorocyclohexyl)methyl]-4-[(4-methyl-1,3-thiazol-5-yl)methyl]-1,2,4-oxadiazol-5(4H)-one] | 200 to 1000 nM | 200 to 1000 nM | 200 to 1000 nM |
| Cn1ccnc1Cn1c(CC2CCC(F)(F)CC2)noc1=O [Example 201, 3-[(4,4-difluorocyclohexyl)methyl]-4-[(1-methyl-1H-imidazol-2-yl)methyl]-4,5-dihydro-1,2,4-oxadiazol-5-one] | > 10000 nM | 1000 to 10000 nM | > 10000 nM |
| O=c1onc(CC2CCC(F)(F)C2)n1Cc1ccc(F)cc1 (stereo not drawn) [Example 204, 3-[(3,3-difluorocyclopentyl)methyl]-4-[(4-fluorophenyl)methyl]-4,5-dihydro-1,2,4-oxadiazol-5-one] | > 10000 nM | > 10000 nM | > 10000 nM |
| Cc1noc(C)c1Cc1noc(=O)n1Cc1ccc(F)cc1 [Example 208, 3-[(dimethyl-1,2-oxazol-4-yl)methyl]-4-[(4-fluorophenyl)methyl]-4,5-dihydro-1,2,4-oxadiazol-5-one] | 1000 to 10000 nM | 1000 to 10000 nM | > 10000 nM |
| Cc1nn(C)c(C)c1Cc1noc(=O)n1Cc1ccc(F)cc1 [Example 212, 4-[(4-fluorophenyl)methyl]-3-[(trimethyl-1H-pyrazol-4-yl)methyl]-4,5-dihydro-1,2,4-oxadiazol-5-one] | 1000 to 10000 nM | > 10000 nM | > 10000 nM |
| Cc1nn(C)c(C)c1Cc1noc(=O)n1Cc1c(F)cccc1Cl [Example 213, 4-[(2-chloro-6-fluorophenyl)methyl]-3-[(trimethyl-1H-pyrazol-4-yl)methyl]-4,5-dihydro-1,2,4-oxadiazol-5-one] | 1000 to 10000 nM | > 10000 nM | > 10000 nM |
| Cc1nn(C)c(C)c1Cc1noc(=O)n1CC1CCC(F)(F)CC1 [Example 215, 4-[(4,4-difluorocyclohexyl)methyl]-3-[(trimethyl-1H-pyrazol-4-yl)methyl]-4,5-dihydro-1,2,4-oxadiazol-5-one] | < 200 nM | 200 to 1000 nM | 1000 to 10000 nM |
| Cc1ncccc1Cc1noc(=O)n1Cc1c(F)cccc1Cl [Example 217, 4-[(2-chloro-6-fluorophenyl)methyl]-3-[(2-methylpyridin-3-yl)methyl]-4,5-dihydro-1,2,4-oxadiazol-5-one] | > 10000 nM | > 10000 nM | > 10000 nM |

Other lines, results leading:

| IC50 [1] | IC50 [2] | IC50 [3] | SMILES |
| --- | --- | --- | --- |
| > 10000 nM | > 10000 nM | > 10000 nM | Cc1nc(C(F)(F)F)ccc1Cn1c(CC2CCC(F)(F)CC2)noc1=O [Example 192, 3-[(4,4-difluorocyclohexyl)methyl]-4-{[2-methyl-6-(trifluoromethyl)-pyridin-3-yl]methyl}-4,5-dihydro-1,2,4-oxadiazol-5-one] |
| 1000 to 10000 nM | 200 to 1000 nM | 1000 to 10000 nM | O=c1onc(CC2CCC(F)(F)CC2)n1Cc1cncs1 [Example 193, 3-[(4,4-difluorocyclohexyl)methyl]-4-[(1,3-thiazol-5-yl)methyl]-1,2,4-oxadiazol-5(4H)-one] |
| 1000 to 10000 nM | 1000 to 10000 nM | > 10000 nM | O=c1onc(CC2CCC(F)(F)CC2)n1Cc1ncco1 [Example 194, 3-[(4,4-difluorocyclohexyl)methyl]-4-[(1,3-oxazol-2-yl)methyl]-1,2,4-oxadiazol-5(4H)-one] |
| 200 to 1000 nM | 200 to 1000 nM | 200 to 1000 nM | Cc1cc(Cn2c(CC3CCC(F)(F)CC3)noc2=O)n(C)n1 [Example 195, 3-[(4,4-difluorocyclohexyl)methyl]-4-[(1,3-dimethyl-1H-pyrazol-5-yl)methyl]-1,2,4-oxadiazol-5(4H)-one] |
| > 10000 nM | > 10000 nM | > 10000 nM | Cc1nc(Cn2c(CC3CCC(F)(F)CC3)noc2=O)no1 [Example 196, 3-[(4,4-difluorocyclohexyl)methyl]-4-[(5-methyl-1,2,4-oxadiazol-3-yl)methyl]-1,2,4-oxadiazol-5(4H)-one] |
| > 10000 nM | 1000 to 10000 nM | 1000 to 10000 nM | O=c1onc(CC2CCC(F)(F)CC2)n1Cn1ccc(C(F)(F)F)n1 [Example 198, 3-[(4,4-difluorocyclohexyl)methyl]-4-{[3-(trifluoromethyl)-1H-pyrazol-1-yl]methyl}-1,2,4-oxadiazol-5(4H)-one] |
| < 200 nM | < 200 nM | < 200 nM | O=c1snc(CC2CCC(F)(F)CC2)n1Cc1c(F)cccc1Cl [Example 203, 4-[(2-chloro-6-fluorophenyl)methyl]-3-[(4,4-difluorocyclohexyl)methyl]-4,5-dihydro-1,2,4-thiadiazol-5-one] |
| < 200 nM | < 200 nM | 200 to 1000 nM | O=c1onc(CC2CCC(F)(F)C2)n1Cc1c(F)cccc1Cl (stereo not drawn) [Example 205, 4-[(2-chloro-6-fluorophenyl)methyl]-3-[(3,3-difluorocyclopentyl)methyl]-4,5-dihydro-1,2,4-oxadiazol-5-one] |
| 1000 to 10000 nM | > 10000 nM | > 10000 nM | Cc1noc(C)c1Cc1noc(=O)n1Cc1c(F)cccc1Cl [Example 209, 4-[(2-chloro-6-fluorophenyl)methyl]-3-[(dimethyl-1,2-oxazol-4-yl)methyl]-4,5-dihydro-1,2,4-oxadiazol-5-one] |
| < 200 nM | 200 to 1000 nM | 1000 to 10000 nM | Cc1nn(C)c(C)c1Cc1noc(=O)n1CC1CCCCC1 [Example 214, 4-(cyclohexylmethyl)-3-[(trimethyl-1H-pyrazol-4-yl)methyl]-4,5-dihydro-1,2,4-oxadiazol-5-one] |
| 1000 to 10000 nM | 1000 to 10000 nM | > 10000 nM | Cc1ncccc1Cc1noc(=O)n1Cc1ccc(F)cc1 [Example 216, 4-[(4-fluorophenyl)methyl]-3-[(2-methylpyridin-3-yl)methyl]-4,5-dihydro-1,2,4-oxadiazol-5-one] |

— US11623919B2, “Heterocyclic P2X7 antagonists” (AXXAM S.P.A., priority 2017, dated 2023)
